Source: patent USRE47193E1, “Selectively substituted quinoline compounds” (EISAI R&D MANAGEMENT CO., LTD., priority 2013, dated 2019)

Assays:
Human TLR7/8 = assay: Human PBMC cell-based assay, TLR7/8 stimulus (RNA-Ig), cytokine ELISA; conditions: primary human PBMC assay, TLR7/8 potency; ligand not given; read-out: Human PBMCs IC50
Procedure: Human PBMC Cell-Based Assay. Human peripheral blood mononuclear cells (PBMC) were isolated from freshly-drawn heparinized (10 USP units/ml, Hospira, Lakeforest, Ill.) healthy donor whole blood by density gradient (Histopaque® 1077, Sigma, Inc., St. Louis, Mo.). Briefly, 25 ml blood was diluted with 15 ml PBS (without Ca^2+, Mg^2+) in a 50 ml conical tube, and 12 ml Histopaque was underlaid using a spinal needle. Tubes were centrifuged for 45 minutes at 1200 rpm (350×g), and PBMC were collected from the buffy coat. Cells were then washed twice in PBS, and red blood cells were lysed by suspension in 5 ml ammonium chloride solution (1× Red Blood Cell Lysis Buffer, eBioscience) for 5 minutes at room temperature. After a final wash in PBS, PBMC were resuspended at a final concentration of 2×10^6/ml in RPMI-1640 media with L-glutamine (Invitrogen) and supplemented with 25 mM HEPES (Mediatech, Inc, Manassas Va.), 10% fetal bovine serum (HyClone, Logan, Utah), and Penicillin-Streptomycin-Glutamine (Mediatech) and plated at 100 ul/well (2×10^5 cells/well) in tissue culture treated 96-well plates (Falcon).
Antagonist compounds solubilized and serial diluted in 100% DMSO were added in triplicate to cells to yield a final concentration of 0.1% DMSO (v/v). Hydroxychloroquine (Acros Organics) solubilized and serial diluted in PBS was added in triplicate to cells. PBMC were incubated with antagonist compounds or HCQ for 30 minutes at 37° C., 5% CO2 before adding various TLR agonist reagents in 100 ul complete media per well as follows (final concentrations indicated): R848 (Resiquimod; GLSynthesis, Worcester, Mass.) at 1 uM for TLR7 and TLR8, LPS (Sigma) at 10 ng/ml for TLR4, and CpG-2216 (InvivoGen) at 5 ug/ml for TLR9. To prepare a TLR7/8 agonist that mimics RNA-containing auto-antibody immune complexes in lupus patients, a 26-mer RNA with a sequence derived from human U1 snRNA stem loop IV [(sequence: […]-[…] (SEQ ID NO: 2) with phosphorothioate backbone] was synthesized (Dharmacon, Inc., Lafayette, Colo.), which has been shown previously to be a potent TLR7 and TLR8 agonist. This RNA molecule was diluted to 2.5 μM in serum-free RPMI, and mouse anti-human single stranded DNA monoclonal antibody (MAB3034, Millipore, Inc., Billerica, Mass.), which also cross-reacts with RNA, was added at a 1:25 dilution or at 1 ug/ml. The resulting “RNA-Ig” stimulus was incubated at room temperature for 15-30 minutes before adding to cells. PBMC were incubated with the various TLR agonists for 20 hours at 37° C., 5% CO2. Cell culture supernatants were collected, and levels of various human cytokines were assessed as indicated by standard ELISA procedure according to the manufacturer's recommended protocol (BD Biosciences, Inc., San Diego, Calif.). In a subsequent assay (Table 6) the ability of ER-899742 to block stimulation of normal PBMC by various TLR7/8 ligands, but not DNA-mediated activation of TLR9, was examined. In this assay cells were plated at 1×10^5 cells/well in 100 ul in 96-well plates.

mouse TLR7 = target: T1, mouse TLR7 (Mus musculus, UniProt P58681); assay: Short-term in vivo (STIV) assay: oral dosing, R848 s.c., plasma IL-6; design: female BALB/c mice (Jackson Labs, Bar Harbor, Me.) were dosed by oral gavage; tissue Jackson Labs; host or cells: living female BALB/c mice; plasma IL-6 after s.c. R848
T1 sequence (P58681 27-1050): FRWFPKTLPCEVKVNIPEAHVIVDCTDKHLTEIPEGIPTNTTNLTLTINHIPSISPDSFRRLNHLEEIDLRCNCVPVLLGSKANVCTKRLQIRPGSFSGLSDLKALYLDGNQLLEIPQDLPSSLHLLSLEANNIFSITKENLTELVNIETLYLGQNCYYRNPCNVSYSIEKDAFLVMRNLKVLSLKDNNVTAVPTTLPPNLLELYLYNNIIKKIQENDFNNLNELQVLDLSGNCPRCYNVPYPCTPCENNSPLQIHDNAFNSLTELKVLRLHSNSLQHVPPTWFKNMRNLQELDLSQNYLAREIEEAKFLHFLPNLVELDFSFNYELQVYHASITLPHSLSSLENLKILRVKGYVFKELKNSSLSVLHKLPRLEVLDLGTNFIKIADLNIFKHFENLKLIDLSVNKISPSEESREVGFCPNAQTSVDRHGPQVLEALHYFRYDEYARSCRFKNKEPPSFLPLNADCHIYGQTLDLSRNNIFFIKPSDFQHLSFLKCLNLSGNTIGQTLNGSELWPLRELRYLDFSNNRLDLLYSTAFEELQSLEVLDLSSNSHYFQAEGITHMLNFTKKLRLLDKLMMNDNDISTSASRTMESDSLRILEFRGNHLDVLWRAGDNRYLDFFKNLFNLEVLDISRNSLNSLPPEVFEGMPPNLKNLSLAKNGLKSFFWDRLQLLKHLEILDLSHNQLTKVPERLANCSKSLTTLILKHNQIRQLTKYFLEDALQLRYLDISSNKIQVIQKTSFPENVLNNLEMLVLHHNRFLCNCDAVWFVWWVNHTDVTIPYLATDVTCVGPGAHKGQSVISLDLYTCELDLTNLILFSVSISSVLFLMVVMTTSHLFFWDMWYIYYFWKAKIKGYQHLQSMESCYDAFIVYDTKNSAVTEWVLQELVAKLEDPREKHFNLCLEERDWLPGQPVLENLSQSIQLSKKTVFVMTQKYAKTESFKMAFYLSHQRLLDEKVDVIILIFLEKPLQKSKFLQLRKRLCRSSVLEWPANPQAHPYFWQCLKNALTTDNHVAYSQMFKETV
Procedure: Figure Legend: Female BALB/c mice were dosed by oral gavage with Vehicle alone (0.5% aqueous methyl-cellulose) or compound formulated in Vehicle at 33 mg/kg, 100 mg/kg or 300 mg/kg. […] (FIG. 1A).
Short-term in vivo (STIV) assay: To assess compound potency in vivo against mouse TLR7, a short-term in vivo (STIV) assay was utilized. Briefly, mice were orally dosed with compounds and at various time points afterwards were injected subcutaneously with agonist R848 to stimulate TLR7. The plasma IL-6 level following R848 stimulation was then measured by ELISA to assess compound potency and duration-of-action.
Short-term in vivo (STIV) assay. Six to eight week old female BALB/c mice (Jackson Labs, Bar Harbor, Me.) were dosed by oral gavage in 200 ul volume with antagonist compounds formulated in 0.5% aqueous methyl-cellulose (Sigma, St. Louis, Mo.). At various time points afterwards, mice were injected subcutaneously (s.c.) in 100 ul volume with 15 ug R848 (Resiquimod; GLSynthesis, Worcester, Mass.) to stimulate TLR7.

C[C@@H]1CN(c2ccc(C#N)c3ncccc23)C[C@H](CN2CCNC(=O)[C@H]2C)O1 [ER-894483]
IC50 (Human TLR7/8): 209 nM

CC1CN(CC2CN(c3ccc(C#N)c4ncccc34)CC(C)O2)CC(CO)O1 (centres unmarked) [ER-888205]
IC50 (Human TLR7/8): 40 nM

CC1CN(c2ccc(C#N)c3ncccc23)CC(C(=O)NCCC(O)C(F)(F)F)O1 (centres unmarked) [ER-899160]
IC50 (Human TLR7/8): 252 nM

CC1CN(c2ccc(C#N)c3ncccc23)CC(C(=O)NCCC(F)(F)F)O1 (centres unmarked) [ER-898565]
IC50 (Human TLR7/8): 198 nM

C[C@@H]1CN(c2ccc(C#N)c3ncccc23)C[C@H](C(=O)N2CC3(CCCNC3)C2)O1 [ER-899021]
IC50 (Human TLR7/8): 5 nM

CC1CN(c2ccc(C#N)c3ncccc23)CC(C(=O)NCC2CNCCO2)O1 (centres unmarked) [ER-899278]
IC50 (Human TLR7/8): 1 nM

CC(CO)NC(=O)C1CN(c2ccc(C#N)c3ncccc23)CC(C)O1 (centres unmarked) [ER-897446]
IC50 (Human TLR7/8): 53 nM

CC1CN(c2ccc(C#N)c3ncccc23)CC(C(=O)N2CC3CNCC3C2)O1 (centres unmarked) [ER-899367]
IC50 (Human TLR7/8): 12 nM

C[C@@H]1CCN(c2ccc(C#N)c3ncccc23)C[C@H](CN2CCC(N3CCCCC3)CC2)O1 [ER-889822]
IC50 (Human TLR7/8): 25 nM

CC1CN(c2ccc(C#N)c3ncccc23)CC(C(=O)NCc2ccn[nH]2)O1 (centres unmarked) [ER-899287]
IC50 (Human TLR7/8): 120 nM

C[C@@H]1CN(c2ccc(C#N)c3ncccc23)C[C@H](CN2CCC(C(N)=O)CC2)O1 [ER-888320]
% Suppression vs. Vehicle (mouse TLR7; 3 h, 100 mg/kg): 100%
% Suppression vs. Vehicle (mouse TLR7; 6 h, 33 mg/kg): 78%
% Suppression vs. Vehicle (mouse TLR7; 6 h, 100 mg/kg): 94%
% Suppression vs. Vehicle (mouse TLR7; 13 h, 33 mg/kg): 9%
% Suppression vs. Vehicle (mouse TLR7; 13 h, 100 mg/kg): 31%

C[C@@H]1CN(c2ccc(C#N)c3ncccc23)C[C@H](C(=O)NC2(C)CCNCC2)O1 [ER-899718]
% Suppression vs. Vehicle (mouse TLR7; 6 h, 100 mg/kg): 74%
% Suppression vs. Vehicle (mouse TLR7; 13 h, 100 mg/kg): 51%

CCn1c(C)nc2cc(NC[C@H]3CN(c4ccc(C#N)c5ncccc45)C[C@@H](C)O3)ccc21 [ER-886609]
IC50 (Human TLR7/8): 4 nM

CCC1CCCCN1CC1CN(c2ccc(C#N)c3ncccc23)CC(C)O1 (centres unmarked) [ER-886958]
IC50 (Human TLR7/8): 34 nM

CC(O)CNC(=O)C1CN(c2ccc(C#N)c3ncccc23)CC(C)O1 (centres unmarked) [ER-897445]
IC50 (Human TLR7/8): 104 nM
